Test results from patent US9375388B2, “Nanoparticle based cosmetic composition” (Indian Institute of Technology, priority 2011, dated 2016).

Experiment: Confocal laser scanning microscopy of skin penetration of dye
Assay type: in vitro ADME
Settings: CLSM of rat skin, calcein dye (FIG. 2)
Text: FIG. 2. CLSM image of rat skin: without calcein dye under (a) calcein filter (b) bright field; with free calcein solution under (c) calcein filter (d) bright field; with calcein-loaded SPC liposomes under (e) calcein filter (f) bright field.

## O=C(O)CN(CC(=O)O)Cc1cc2c(cc1O)Oc1cc(O)c(CN(CC(=O)O)CC(=O)O)cc1C21OC(=O)c2ccccc21 [free dye, calcein]
  Penetration of dye through skin: visible only at the surface of the skin and around the hair follicles
